Drawing on patent US10189841B2, “Purinones as ubiquitin-specific protease 1 inhibitors” (Forma Therapeutics, Inc., priority 2015, dated 2019), this text covers IC50 for 31 compounds.

Each structure is given as a SMILES string.

The target of the assay is USP1 (construct USP1 (I-785, GG670, 671AA)/UAF1 (I-677)-Flag) (Homo sapiens (Human), UniProt O94782, G670A/G671A). Put plainly: Ubiquitin-Rhodamine 110 assay for USP1 activity. Type of assay: biochemical. As to conditions: USP1/UAF1 25 pM, Ub-Rh110 25 nM, 30 min preincubation. Summed up: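 Ub-Rh110 (25 nM, ≪Km) cleavage read at ex 485/em 535 in Tris pH 8.0, CaCl2, GSH, Prionex, Triton X-100. The screen used 10 µM compound, 100 pM USP1/UAF1 and 45 min at RT.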
Chain of USP1 (construct USP1 (I-785, GG670, 671AA)/UAF1 (I-677)-Flag) (O94782 whole entry G670A/G671A): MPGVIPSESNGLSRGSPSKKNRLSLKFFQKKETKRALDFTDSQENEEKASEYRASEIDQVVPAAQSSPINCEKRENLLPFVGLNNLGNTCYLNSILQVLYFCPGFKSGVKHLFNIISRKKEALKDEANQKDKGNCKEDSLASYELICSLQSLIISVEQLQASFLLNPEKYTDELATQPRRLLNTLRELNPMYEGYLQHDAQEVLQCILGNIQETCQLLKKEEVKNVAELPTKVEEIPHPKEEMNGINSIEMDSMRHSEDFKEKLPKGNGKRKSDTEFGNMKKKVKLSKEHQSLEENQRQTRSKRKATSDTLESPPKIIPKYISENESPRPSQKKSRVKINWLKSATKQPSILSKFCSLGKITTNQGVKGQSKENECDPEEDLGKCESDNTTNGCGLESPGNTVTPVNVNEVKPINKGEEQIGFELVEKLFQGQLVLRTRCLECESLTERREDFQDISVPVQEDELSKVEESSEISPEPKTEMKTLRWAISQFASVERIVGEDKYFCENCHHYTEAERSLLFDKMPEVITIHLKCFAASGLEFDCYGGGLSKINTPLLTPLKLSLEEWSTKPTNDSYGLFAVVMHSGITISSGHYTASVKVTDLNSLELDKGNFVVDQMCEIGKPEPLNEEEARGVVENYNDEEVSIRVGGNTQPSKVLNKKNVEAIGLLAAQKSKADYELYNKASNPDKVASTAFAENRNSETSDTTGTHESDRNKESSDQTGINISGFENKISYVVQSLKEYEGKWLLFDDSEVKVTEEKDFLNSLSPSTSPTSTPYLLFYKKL
Chain of USP1 (construct USP1 (I-785, GG670, 671AA)/UAF1 (I-677)-Flag) (Q8TAF3 whole entry partner): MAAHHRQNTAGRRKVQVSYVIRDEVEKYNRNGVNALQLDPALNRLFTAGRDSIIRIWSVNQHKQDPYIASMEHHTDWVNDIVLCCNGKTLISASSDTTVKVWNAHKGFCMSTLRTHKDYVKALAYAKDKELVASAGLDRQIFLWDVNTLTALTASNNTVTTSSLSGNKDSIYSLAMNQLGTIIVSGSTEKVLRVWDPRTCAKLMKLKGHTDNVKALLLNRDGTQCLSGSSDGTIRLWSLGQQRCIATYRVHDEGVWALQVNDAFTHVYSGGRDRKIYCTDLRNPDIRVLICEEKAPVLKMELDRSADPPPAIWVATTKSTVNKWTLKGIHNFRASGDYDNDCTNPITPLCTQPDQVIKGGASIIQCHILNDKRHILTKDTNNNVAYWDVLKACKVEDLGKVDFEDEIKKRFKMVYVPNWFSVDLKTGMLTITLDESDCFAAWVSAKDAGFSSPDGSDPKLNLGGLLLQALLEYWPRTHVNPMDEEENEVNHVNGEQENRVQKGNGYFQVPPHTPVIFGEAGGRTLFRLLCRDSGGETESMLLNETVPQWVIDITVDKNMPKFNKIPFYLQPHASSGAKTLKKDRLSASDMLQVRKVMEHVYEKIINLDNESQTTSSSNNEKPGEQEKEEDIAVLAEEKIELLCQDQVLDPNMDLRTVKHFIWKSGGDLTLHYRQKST
Compound `Cc1ncccc1-c1ncc2c(n1)n(Cc1ccc(-c3nc(C(F)(F)F)cn3C)cc1)c(=O)n2C` [Compound I-62, 7-methyl-9-(4-(1-methyl-4-(trifluoromethyl)-1H-imidazol-2-yl)benzyl)-2-(2-methylpyridin-3-yl)-7,9-dihydro-8H-purin-8-one] came in with an IC50 of 200 to 2000 nM.

Consider `Cc1cc(C(F)(F)F)n(-c2ccc(Cn3c(=O)[nH]c4cnc(-c5cccnc5OCC(F)(F)F)nc43)cc2)n1` [Compound I-41, 9-(4-(3-methyl-5-(trifluoromethyl)-1H-pyrazol-1-yl)benzyl)-2-(2-(2,2,2-trifluoroethoxy)pyridin-3-yl)-7,9-dihydro-8H-purin-8-one], for which the IC50 lay in the range of 50 to 200 nM.

On to `CC(C)c1ccccc1-c1ncc2[nH]c(=O)n(Cc3ccc4c(c3)ncn4C)c2n1` [Compound I-182, 2-(2-isopropylphenyl)-9-((1-methyl-1H-benzo[d]imidazol-5-yl)methyl)-7,9-dihydro-8H-purin-8-one], for which the IC50 was more than 2000 nM.

In turn, `CC(C)c1ccccc1-c1ncc2[nH]c(=O)n(Cc3ccc(C(=O)N(C)C4CCOCC4)cc3)c2n1` [Compound I-367, 4-((2-(2-isopropylphenyl)-8-oxo-7,8-dihydro-9H-purin-9-yl)methyl)-N-methyl-N-(tetrahydro-2H-pyran-4-yl)benzamide] displayed an IC50 of 50 to 200 nM.

Take `CC(C)c1ccccc1-c1ncc2[nH]c(=O)n(Cc3ncc(-n4cccn4)cn3)c2n1` [Compound I-509, 9-((5-(1H-pyrazol-1-yl)pyrimidin-2-yl)methyl)-2-(2-isopropylphenyl)-7,9-dihydro-8H-purin-8-one]: the IC50 is more than 2000 nM.

Compound `CC(=O)N1CCCC(c2ccn(-c3ccc(Cn4c(=O)[nH]c5cnc(-c6ccccc6C(C)C)nc54)cc3)n2)C1` (stereo not shown) [Compound I-468, 9-(4-(3-(1-acetylpiperidin-3-yl)-1H-pyrazol-1-yl)benzyl)-2-(2-isopropylphenyl)-7,9-dihydro-8H-purin-8-one] showed an IC50 of less than 50 nM. The figure for `CN1CCN(c2ncccc2-c2ncc3[nH]c(=O)n(Cc4ccc(-c5nc(C(F)(F)F)cn5C)cc4)c3n2)CC1` [Compound I-328, 9-(4-(1-methyl-4-(trifluoromethyl)-1H-imidazol-2-yl)benzyl)-2-(2-(4-methylpiperazin-1-yl)pyridin-3-yl)-7,9-dihydro-8H-purin-8-one] is 200 to 2000 nM; for `Cc1cc(C(=O)N(C)c2ccc(Cn3c(=O)n(C)c4cnc(-c5ccccc5C(C)C)nc43)cc2)n(C)n1` [Compound I-471, N-(4-((2-(2-isopropylphenyl)-7-methyl-8-oxo-7,8-dihydro-9H-purin-9-yl)methyl)phenyl)-N,1,3-trimethyl-1H-pyrazole-5-carboxamide] it is more than 2000 nM; for `CN(C)C(=O)CNc1ncccc1-c1ncc2[nH]c(=O)n(Cc3ccc(-c4nc(C(F)(F)F)cn4C)cc3)c2n1` [Compound I-318, N,N-dimethyl-2-((3-(9-(4-(1-methyl-4-(trifluoromethyl)-1H-imidazol-2-yl)benzyl)-8-oxo-8,9-dihydro-7H-purin-2-yl)pyridin-2-yl)amino)acetamide] it is 200 to 2000 nM. Under `Cc1cnnn1-c1ccc(Cn2c(=O)[nH]c3cnc(-c4ccccc4C(C)C)nc32)cc1` [Compound I-185, 2-(2-isopropylphenyl)-9-(4-(5-methyl-1H-1,2,3-triazol-1-yl)benzyl)-7,9-dihydro-8H-purin-8-one] stands less than 50 nM. Compound `CC(C)c1ccccc1-c1ncc2[nH]c(=O)n(Cc3ccc(-n4ncc5c4CNC5)cc3)c2n1` [Compound I-102, 9-(4-(5,6-dihydropyrrolo[3,4-c]pyrazol-1(4H)-yl)benzyl)-2-(2-isopropylphenyl)-7,9-dihydro-8H-purin-8-one] had an IC50 of 200 to 2000 nM.

`CC(C)c1ccccc1-c1ncc2[nH]c(=O)n(Cc3ccc(-c4cnn(C5CCOCC5)c4)cc3)c2n1` [Compound I-519, 2-(2-Isopropylphenyl)-9-(4-(1-(tetrahydro-2H-pyran-4-yl)-1H-pyrazol-4-yl)benzyl)-7,9-dihydro-8H-purin-8-one]: the IC50 lay in the range of 200 to 2000 nM. `CC(C)c1ccccc1-c1ncc2[nH]c(=O)n([C@H](C)c3ccc(-c4nc(C(F)(F)F)cn4C)cc3)c2n1` [Compound I-214, (R)-2-(2-isopropylphenyl)-9-(1-(4-(1-methyl-4-(trifluoromethyl)-1H-imidazol-2-yl)phenyl)ethyl)-7,9-dihydro-8H-purin-8-one] yielded an IC50 of less than 50 nM. Compound `CC(C)c1ccccc1-c1ncc2[nH]c(=O)n(Cc3ccc(C(=O)N4CCN(C)CC4)cc3)c2n1` [Compound I-410, 2-(2-isopropylphenyl)-9-(4-(4-methylpiperazine-1-carbonyl)benzyl)-7,9-dihydro-8H-purin-8-one] yielded a half-maximal inhibitory concentration (IC50) of more than 2000 nM. The figure for `CC(=O)N1CCC(c2ccn(-c3ccc(Cn4c(=O)[nH]c5cnc(-c6ccccc6C(C)C)nc54)cc3)n2)CC1` [Compound I-463, 9-(4-(3-(1-acetylpiperidin-4-yl)-1H-pyrazol-1-yl)benzyl)-2-(2-isopropylphenyl)-7,9-dihydro-8H-purin-8-one] is less than 50 nM; for `CC(C)c1ccccc1-c1ncc2[nH]c(=O)n(C3CCN(c4cccnc4)CC3)c2n1` [Compound I-144, 2-(2-isopropylphenyl)-9-(1-(pyridin-3-yl)piperidin-4-yl)-7,9-dihydro-8H-purin-8-one] it is more than 2000 nM; for `CC(C)c1ccccc1-c1ncc2c(n1)n(Cc1ccc(NS(=O)(=O)c3ccn(C)n3)cc1)c(=O)n2C` [Compound I-453, N-(4-((2-(2-isopropylphenyl)-7-methyl-8-oxo-7,8-dihydro-9H-purin-9-yl)methyl)phenyl)-1-methyl-1H-pyrazole-3-sulfonamide] it is more than 2000 nM. Under `Cn1ccc2cccc(-c3ncc4[nH]c(=O)n(Cc5ccc(-n6cccn6)cc5)c4n3)c21` [Compound I-29, 9-(4-(1H-pyrazol-1-yl)benzyl)-2-(1-methyl-1H-indol-7-yl)-7,9-dihydro-8H-purin-8-one] stands 200 to 2000 nM. The figure for `O=c1[nH]c2cnc(-c3cccnc3OCC(F)(F)F)nc2n1Cc1ccc(-n2cccn2)cc1` [Compound I-18, 9-(4-(1H-pyrazol-1-yl)benzyl)-2-(2-(2,2,2-trifluoroethoxy)pyridin-3-yl)-7,9-dihydro-8H-purin-8-one] is 200 to 2000 nM; for `CC(C)c1ccccc1-c1ncc2[nH]c(=O)n(Cc3ccc(C(=O)N4CC(O)C4)cc3)c2n1` [Compound I-377, 9-(4-(3-hydroxyazetidine-1-carbonyl)benzyl)-2-(2-isopropylphenyl)-7,9-dihydro-8H-purin-8-one] it is more than 2000 nM. With `COCCn1c(=O)n(Cc2ccc(-c3nc(C(F)(F)F)cn3C)cc2)c2nc(-c3cccnc3C(C)C)ncc21` [Compound I-120, 2-(2-isopropylpyridin-3-yl)-7-(2-methoxyethyl)-9-(4-(1-methyl-4-(trifluoromethyl)-1H-imidazol-2-yl)benzyl)-7,9-dihydro-8H-purin-8-one], the IC50 was less than 50 nM. The figure for `Cn1cc(C(F)(F)F)nc1-c1ccc(Cn2c(=O)[nH]c3cnc(-c4cccnc4NCC4CCCO4)nc32)cc1` (stereo not shown) [Compound I-320, 9-(4-(1-methyl-4-(trifluoromethyl)-1H-imidazol-2-yl)benzyl)-2-(2-(((tetrahydrofuran-2-yl)methyl)amino)pyridin-3-yl)-7,9-dihydro-8H-purin-8-one] is 50 to 200 nM; for `CC(C)c1ccccc1-c1ncc2c(n1)n(Cc1ccc(OCC3CC3)cc1)c(=O)n2C` [Compound I-228, 9-(4-(cyclopropylmethoxy)benzyl)-2-(2-isopropylphenyl)-7-methyl-7,9-dihydro-8H-purin-8-one] it is 50 to 200 nM; for `CC(C)c1ccccc1-c1ncc2[nH]c(=O)n(Cc3ccc(-n4nccn4)cc3)c2n1` [Compound I-140, 9-(4-(2H-1,2,3-triazol-2-yl)benzyl)-2-(2-isopropylphenyl)-7,9-dihydro-8H-purin-8-one] it is 50 to 200 nM. Under `Cc1nc(-c2ccc(Cn3c(=O)[nH]c4cnc(-c5cccc(F)c5C(C)C)nc43)cc2)no1` [Compound I-188, 2-(3-fluoro-2-isopropylphenyl)-9-(4-(5-methyl-1,2,4-oxadiazol-3-yl)benzyl)-7,9-dihydro-8H-purin-8-one] stands less than 50 nM; under `CC(C)c1ccccc1-c1ncc2c(n1)n(Cc1ccc(N(C)C(=O)NC3CC3)cc1)c(=O)n2C` [Compound I-486, 3-cyclopropyl-1-(4-((2-(2-isopropylphenyl)-7-methyl-8-oxo-7,8-dihydro-9H-purin-9-yl)methyl)phenyl)-1-methylurea], 200 to 2000 nM; under `CC(C)c1c(Cl)cccc1-c1ncc2[nH]c(=O)n(Cc3ccc(-n4cccn4)cc3)c2n1` [Compound I-93, 9-(4-(1H-pyrazol-1-yl)benzyl)-2-(3-chloro-2-isopropylphenyl)-7,9-dihydro-8H-purin-8-one], 50 to 200 nM. Under `CC(C)c1ccccc1-c1ncc2[nH]c(=O)n(Cc3ccc(C(=O)N4CCOC[C@H]4C)cc3)c2n1` [Compound I-404, (R)-2-(2-isopropylphenyl)-9-(4-(3-methylmorpholine-4-carbonyl)benzyl)-7,9-dihydro-8H-purin-8-one] stands 200 to 2000 nM; under `CC(C)c1ccccc1-c1ncc2[nH]c(=O)n(Cc3ccc(-n4cc(-c5ccccn5)nn4)cc3)c2n1` [Compound I-349, 2-(2-isopropylphenyl)-9-(4-(4-(pyridin-2-yl)-1H-1,2,3-triazol-1-yl)benzyl)-7,9-dihydro-8H-purin-8-one], 200 to 2000 nM. `CCOc1ncccc1-c1ncc2[nH]c(=O)n(Cc3ccc(-c4nc(C(F)(F)F)cn4C)cc3)c2n1` [Compound I-421, 2-(2-ethoxypyridin-3-yl)-9-(4-(1-methyl-4-(trifluoromethyl)-1H-imidazol-2-yl)benzyl)-7,9-dihydro-8H-purin-8-one] gave a half-maximal inhibitory concentration (IC50) of less than 50 nM. Under `CC(C)c1ccccc1-c1ncc2[nH]c(=O)n(Cc3ccc(-n4ccc(C5CCCNC5)n4)cc3)c2n1` (stereo not shown) [Compound I-223, 2-(2-isopropylphenyl)-9-(4-(3-(piperidin-3-yl)-1H-pyrazol-1-yl)benzyl)-7,9-dihydro-8H-purin-8-one] stands 50 to 200 nM.
